Experiment [1] deals with β-catenin/TCF-responsive TOPFlash reporter. Put plainly: TOPFlash reporter assay in mouse EpiSCs. Particulars: CD1 mouse EpiSCs, 12 hours. It counts as cell-based. The protocol:
(A) TOPFlash™ assay in CD1 mouse EpiSCs treated with the indicated inhibitors for 12 hours. Data represent mean±s.d. of three biological replicates. (B) Representative phase contrast images of CD1 mouse EpiSCs cultured in the indicated conditions for 7 days. (C) Western blot analysis of CD1 mouse EpiSCs treated with the indicated inhibitors for 12 h. (D) qRT-PCR analysis of Axin1 and Axin2 mRNA levels in CD1 mouse EpiSCs stably transfected with Axin1 shRNA or Axin2 shRNA. Data represent mean±s.d. of three biological replicates. (E) Colony assay on CD1 mouse EpiSCs stably transfected with scramble, Axin1, or Axin2 shRNAs. Cells were plated onto a 6-well plate at a density of 5,000 cells/well and cultured in CHIR/IWR-1. Colonies were counted 7 days after plating. Data represent the total combined numbers of colonies from two independent experiments in which each shRNA-transfected group was cultured in one well of a 6-well plate. (F) Representative phase contrast images of CD 1 mouse EpiSCs stably transfected with the indicated shRNAs and cultured in CHIR/IWR-1 for 7 days. (G) Western blot analysis of CD1 mouse EpiSCs overexpressing Flag-tagged Axin1 or Axin2. (H) Representative phase contrast images of CD1 mouse EpiSCs overexpressing Axin1 or Axin2 and cultured in CHIR for 7 days. Axin2-overexpressing EpiSCs could be continually passaged in CHIR alone. Scale bars, 50 μm (B, F and H)
Next, we investigated the mechanism by which CHIR/XAV promotes EpiSC self-renewal. By inhibiting GSK3 phosphorylation of β-catenin, CHIR stabilizes β-catenin, which then trans-locates to the nucleus and forms complexes with DNA-binding proteins, including TCFs, to activate transcription (Logan and Nusse, 2004). […]
For quantifying relative Oct3/4 enhancer activities, pGL3-Oct4 DE and pGL3-Oct4 PE plasmids (gifts from Hans Schöler's lab) were co-transfected with the Renilla vector, using the Amaxa™ Transfection Kit (Lonza). […] For quantifying relative β-catenin/Tcf transcriptional activity, pGL2-SuperTOP™ plasmid (gift from Randall Moon) was co-transfected with the Renilla vector and assayed accordingly.
A general note: In a reporter assay the amount or activity of a reporter protein is the signal.

In experiment [2] the test system is Axin2. Put plainly: Western blot of Axin2 in mouse EpiSCs. It counts as cell-based. Particulars: CD1 mouse EpiSCs treated 12 h. In general terms: A western blot detects proteins with antibodies after separation by electrophoresis.

Each structure is given as a SMILES string.

For the compound `Cc1c[nH]c(-c2cnc(NCCNc3ccc(C#N)cn3)nc2-c2ccc(Cl)cc2Cl)n1` [CHIR99021, 6-((2-((4-(2,4-Dichlorophenyl)-5-(4-methyl-1H-imidazol-2-yl)pyrimidin-2-yl)amino)ethyl)amino)nicotinonitrile], the TOPFlash reporter activity result in experiment [1] is given as “strongly induced”. Further, the “amount of Axin2 protein” value in experiment [2] is on record as “elevated”.

As to `Oc1nc(-c2ccc(C(F)(F)F)cc2)nc2c1CSCC2` [XAV939, 3,5,7,8-Tetrahydro-2-[4-(trifluoromethyl)phenyl]-4H-thiopyrano[4,3-d]pyrimidin-4-one], the “effect on TOPFlash activity induced by CHIR” value in experiment [1] (added to CHIR) is on record as “abolished the TOPFlash activity induced by CHIR”. In experiment [2], the “amount of Axin2 protein” value was “significantly increased”.

The values above are taken from US20130273649A1, “Culture medium for pluripotent stem cells” (UNIVERSITY OF SOUTHERN CALIFORNIA, priority 2012, published 2013).
